pEC50, pKi: −log10 of the molar value. Calls of active or inactive are those of the source. The calls are words filed in the database; no cut-off is given here.
Key:
[1] = target: Sodium-dependent serotonin transporter (Homo sapiens, UniProt P31645, G498C); assay: Decrease in [3H]5-HT uptake at human SERT G498C mutant transfected in HEK293 cells; type: cell-based
[2] = target: Sodium-dependent serotonin transporter (Homo sapiens, UniProt P31645, C109A); assay: Inhibition of [3H]5-HT uptake at human SERT C109A mutant transfected in HEK cells; type: cell-based, HEK293
[3] = system: Sodium-dependent serotonin transporter (Homo sapiens), P31645 [C109A]; assay: Activation of inward current at human SERT C109A mutant expressed in Xenopus laevis oocytes; type: cell-based; conditions: Oocyte
[4] = system: Sodium-dependent serotonin transporter (Homo sapiens), P31645 [C109A]; assay: Blockade of leak current of human SERT C109A mutant expressed in Xenopus laevis oocytes assessed as outward current at 30 uM; type: cell-based; conditions: Oocyte

Q: With C[n+]1ccc(-c2ccc(SS(C)(=O)=O)cc2)cc1 as the molecule, how does the pEC50 [1] read?
A: Its pEC50 is 5.40.

Q: What about the pKi [2] of the same molecule?
A: The pKi was 2.89.

Q: And the Activity [3]?
A: The Activity was “inactive”.

Q: What about the Activity [4] of the same molecule?
A: The Activity was “Active”.

Q: With C[n+]1ccc(-c2ccccc2)cc1 as the molecule, how does the pKi [2] read?
A: Its pKi is 4.32.

Q: How did the pEC50 [1] turn out when C[N+](C)(C)CCSS(C)(=O)=O was run?
A: Its pEC50 is 5.50.

From ChEMBL document CHEMBL1144518, “1-Methylpyridinium-4-(4-phenylmethanethiosulfonate) iodide, MTS-MPP+, a novel scanning cysteine accessibility method (SCAM) reagent for monoamine transporter studies” (Bioorg Med Chem, 2007)
